Laboratory results reported in patent US10030016B2 (Sunesis Pharmaceuticals, Inc., priority 2009, dated 2018).
Read-outs that look alike come from different tables or passages of the source.

Legend:
[1] = target: PDK1 (Homo sapiens (Human), UniProt O15530); experiment: PDK1 kinase assay (coupled PDK1/AKT/FAM-crosstide assay, IMAP fluorescence polarization); type: biochemical
Summary of the method: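 PDK1 activity is measured indirectly through activation of a PIFtide-fused AKT2 construct that phosphorylates FAM-crosstide (100 nM). The reaction uses 0.75 nM PDK1, 40 μM ATP, 30 min, 25° C, with IMAP polarization detection.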

[2] = tested on: phospho-akt (Thr308) in PC-3 cells; experiment: Inhibition of phospho-akt (Thr308) in PC-3 cells, MSD phospho-akt 308 ELISA kit; type: cell-based; details: Homo sapiens, 2 hours, no serum, read-out: EC50
Summary of the method: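 PC-3 cells were seeded overnight in growth medium with 10% FBS, then exposed to compound serially diluted threefold in serum-free medium for 2 hours. Lysates were captured overnight at 4 degrees on MSD plates and phospho-Akt Thr308 was detected electrochemiluminescently, against DMSO high and 5 μM wortmannin low controls.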

[3] = inhibition of phospo-PDK1 in vitro
[4] = inhibition of P308 Akt in PC-3 cells, MSD
[5] = inhibition of P308 Akt in PC-3 cells using MSD

Sequence of PDK1 (O15530 51-359): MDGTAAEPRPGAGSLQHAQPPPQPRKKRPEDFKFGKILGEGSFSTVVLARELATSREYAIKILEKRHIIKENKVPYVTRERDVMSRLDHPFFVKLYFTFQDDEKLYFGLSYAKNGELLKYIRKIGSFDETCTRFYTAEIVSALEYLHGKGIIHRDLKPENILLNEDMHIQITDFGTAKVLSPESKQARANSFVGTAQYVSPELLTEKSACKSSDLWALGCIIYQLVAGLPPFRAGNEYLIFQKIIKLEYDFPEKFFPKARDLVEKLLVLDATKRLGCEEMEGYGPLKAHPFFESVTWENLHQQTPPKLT

SMILES	IC50 [1, 3] [nM]	EC50 [2, 4] [nM]	IC50 ([1]; inhibition of PDK1 in vitro) [nM]	EC50 [2, 5] [nM]
N#Cc1cnc(NCc2ccc(-c3ccc4ncnc(N)c4c3)s2)c(C(=O)NCc2ccc(F)c(F)c2)c1 [Ex. 8.8.1, 2-(((5-(4-aminoquinazolin-6-yl)thiophen-2-yl)methyl)amino)-5-cyano-N-(3,4-difluorobenzyl)nicotinamide]	< 100	< 1000		
CS(=O)(=O)Nc1cnc(NCc2ccc(-c3ccc4ncnc(N)c4c3)s2)c(C(=O)NCc2ccc(F)c(F)c2)c1 [Ex. 8.6.1, 2-({[5-(4-aminoquinazolin-6-yl)thiophen-2-yl]methyl}amino)-N-(3,4-difluorobenzyl)-5-[(methylsulfonyl)amino]pyridine-3-carboxamide]	< 100	< 1000		
C[C@H](NC(=O)c1cccnc1NCc1ccc(-c2ccc3ncnc(NC4COC4)c3c2)s1)c1ccc(F)c(F)c1 [Example 4.35]	< 100	1000 to 10000		
N#Cc1cnc(NCc2ccc(-c3cnc4[nH]c(=O)[nH]c4c3)cc2)c(C(=O)NCc2ccc(F)cc2)n1 [Example 365, 6-cyano-N-(4-fluorobenzyl)-3-(4-(2-oxo-2,3-dihydro-1H-imidazo[4,5-b]pyridin-6-yl)benzylamino)pyrazine-2-carboxamide]			< 100	< 1000
Nc1ncc(-c2ccc(CNc3ncc(C(F)(F)F)cc3C(=O)Nc3ccc(F)cc3)cc2)nc1CCC1CCNC1 (stereo not drawn) [Example 76, 2-{4-[5-Amino-6-(2-pyrrolidin-3-yl-ethyl)-pyrazin-2-yl]-benzylamino}-N-(4-fluoro-phenyl)-5-trifluoromethyl-nicotinamide]			< 100	< 1000
C[C@H](NC(=O)c1cc(C#N)cnc1NCc1cnc(-c2cnc3[nH]ncc3c2)nc1)c1ccc(F)cc1 [Example 69, 5-Cyano-N-[(S)-1-(4-fluoro-phenyl)-ethyl]-2-{[2-(1H-pyrazolo[3,4-b]pyridin-5-yl)-pyrimidin-5-ylmethyl]-amino}-nicotinamide]			100 to 1000	> 10000
O=C(NCc1ccc(F)c(F)c1)c1cccnc1Nc1cccc(-c2cccn3c(=O)[nH]nc23)c1 [Example 17.3]	100 to 1000	> 10000		
N#Cc1ccc(NC(=O)c2nc(C#N)cnc2NCc2ccc(-c3cnc4[nH]nc(N)c4c3)cc2)cc1 [Example 425, 3-(4-(3-amino-1H-pyrazolo[3,4-b]pyridin-5-yl)benzylamino)-6-cyano-N-(4-cyanophenyl) pyrazine-2-carboxamide]			< 100	< 1000
Cc1cnc(/C=C2\C(=O)Nc3cc(/C=C/CNc4ncccc4C(=O)NCc4ccc(F)c(F)c4)ccc32)[nH]1 [Example 15.9, N-(3,4-Difluoro-benzyl)-2-((E)-3-{3-[1-(5-methyl-1H-imidazol-2-yl)-meth-(Z)-ylidene]-2-oxo-2,3-dihydro-1H-indol-6-yl}-allylamino)-nicotinamide]	< 100	1000 to 10000		
C[C@H](NC(=O)c1nccnc1NC/C=C/c1ccc2c(c1)NC(=O)/C2=C\c1cnc[nH]1)c1ccc(F)cc1 [Example 15.20, 3-((E)-3-((Z)-3-((1H-imidazol-5-yl)methylene)-2-oxoindolin-6-yl)allylamino)-N-((S)-1-(4-fluorophenyl)ethyl) pyrazine-2-carboxamide]	< 100	< 1000		
CC(C)C(=O)Nc1cnc(NCc2ccc(-c3ccc4ncnc(N)c4c3)s2)c(C(=O)NCc2ccc(F)c(F)c2)c1 [Example 8.5.3, 2-({[5-(4-aminoquinazolin-6-yl)thiophen-2-yl]methyl}amino)-N-(3,4-difluorobenzyl)-5-[(2-methylpropanoyl)amino] pyridine-3-carboxamide]	100 to 1000	1000 to 10000		
O=C(NCc1ccc(F)cc1)c1cccnc1NCc1cccc(-c2c[nH]c3ncccc23)c1 [Example 1.6, 2-(3-(1H-pyrrolo[2,3-b]pyridin-3-yl)benzylamino)-N-(4-fluorobenzyl)nicotinamide]	< 100	1000 to 10000		
